Series [1] can be described thus: pH titration of aqueous solution, UV-Vis absorption and steady-state fluorescence (pH dependence, pKa). The format is physicochemical. As for the experimental part: For experiments in water, stock solutions (1 mM) of guanylated fluorophore (A) in ethanol were used. All aqueous solutions were prepared by diluting the stock solution in Milli-Q water to the desired concentration and filtered with 0.22 µm filters before use. For the pH titration experiments, aqueous solutions of guanylated fluorophore (A) (10 µM) were titrated by the successive addition of small volumes (in the order of microliters) of HCI and NaOH solutions of different concentrations (0.01-10 M) to an initial volume of 25 mL to minimize changes in the sample volume. UV-Vis absorption, SSF spectra were recorded.
UV-Vis absorption spectra of guanylated fluorophore (A) were recorded at room temperature using a Cary 100 (Varian) spectrophotometer using a slit width of 0.4 nm and a scan rate of 600 nm/min.
(§1) Steady-state fluorescence (SSF) spectra of the samples were recorded employing an FLS920 (Edinburgh Instruments) spectrofluorometer equipped with a MCP-PMT (microchannel plate-photomultiplier tube) detector (R3809 model) and a TCSPC (time-correlated single photon counting) data acquisition card (TCC900 model). A TLC 50 temperature-controlled cuvette holder (Quantum Northwest) was employed for the measurements (temperature was controlled at 296 K, which corresponds to 22.85 °C). A Xe lamp of 450 W was used as the light source for SSF spectra. […]

Series [2] is described as follows: Anion selectivity, fluorescence decrease on addition of anion in water (Figure 6a). The following applies: 100 µM anion. The procedure: (§2) For ion interaction experiments, an aqueous solution of guanylated fluorophore (A) (10 µM) was titrated with different salt solutions (CaCl2, KCI, NaCl, NaCH3COO, KSCN, Na2CO3, Na2SO3, SDS, Na2HPO4, Na3PO4, AgNO3, MgSO4, CuSO4, and NiSO4). Different concentrations of ions were tested from 0 to 100 µM and steady-state fluorescence (SSF) spectra were acquired. All measurements were performed using 10 mm quartz cuvette (Hellma Analytics).
The selectivity of guanylated fluorophore (A) was tested with different anions (Figure 6a). […] It is important to emphasize that the selectivity of guanylated fluorophore (A) was tested in water, where the presence of cations like Ca^2+, Ni^2+, K^+, Na^+ or Mg^2+ or anions like HPO4^2- NO^3- and Cl^- normally presented in this media will not affect the final recognition values. To evaluate the selectivity to sulfate anions, additional experiments were conducted on water complex samples containing high concentrations of such ions as interfering.

Series [3] in a line: Association constant from fluorescence titration data, Scatchard plot method. The class given is binding. The procedure: as §2
Chem. Commun. (Cambridge, United Kingdom) 2003, 2 (6), 792-793. https://doi.org/10.1039/b300098b)by the following equation (i): [SO4^(2−)] = (1)/(nKa)(1)/([F]0^(n−1))(1−α)/(α^n) [formula] where; α is defined as the ratio between concentration of free fluorophore (e.g. [F] and initial [F]0 fluorophore concentration, e.g. for the guanylated fluorophore (A), and can be determined from the fluorescence difference at any titration stage; n is the stoichiometry to the studied complex Fn(SO4^2-)m.
The data of figure 5d of example 3 was fitted to equation (i) as shown in: • Figure 7a for the 1:1 complex of guanylated fluorophore (A) and sulfate anion (i.e., (A)(SO4^2-), complex A) • Figure 7b for the a 2:1 complex of guanylated fluorophore (A) and sulfate anion (i.e., (A)2(SO4^2-), complex B)

A short description of series [4]: Ion recognition: fluorescence change on addition of salts in water. The procedure: […] Different concentrations of ions were tested from 0 to 100 µM and steady-state fluorescence (SSF) spectra were acquired. All measurements were performed using 10 mm quartz cuvette (Hellma Analytics).
as §1
Although the fluorescence intensity of guanylated fluorophore (A) was the same for most of the ions, the presence of sulfate anions (added to a concentration of 100 µM) caused -2-fold fluorescence quenching in guanylated fluorophore (A) (at a concentration of 10 µM) (Figure 5a). […] More importantly, for the same titration a gradual fluorescence decrease without any shift in the emission spectra was observed (see Figure 5c).
Figure 6b collects the fluorescence changes (%) of guanylated fluorophore (A) when successive quantities of 100 µM of anions are added over 5µM solution of A in water.

Here are results for 1 compound from patent EP4057003A1, “SELECTIVE SULFATE ANION DETECTION USING GUANYLATED FLUOROPHORES” (Universidad de Castilla la Mancha, priority 2021, dated 2022).

As to `CC(C)NC(=Nc1ccc2c(c1)Cc1ccccc1-2)NC(C)C` [guanylated fluorophore (A), 2-(9H-fluoren-2-yl)-1,3-diisopropylguanidine], the pKa in series [1] (aqueous solution (Milli-Q water), water, from absorption spectra at different pH (A / AH^+ equilibrium)) was 11.1. Moreover, the “intensity of the fluorescence and the wavelength of emission” value in series [1] (pH in the range of 5-12, λex 272 nm) is “only mildly affected”. Further, the sensitivity entry is given as “no sensitivity was found” in series [2] (HPO4^2-), “no sensitivity was found” in series [2] (PO4^3-), “sensitivity was not observed” in series [2] (SO3^2-) and “sensitivity was not observed” in series [2] (dodecyl sulfate (SDS)). Further, the Ka in series [3] (1:1 complex (A)(SO4^2-), complex A) is reported as 1.26x10^5; in series [3] (2:1 complex (A)2(SO4^2-), complex B) it was 1.55x10^10. The “fluorescence changes (%) / emission intensity” value in series [4] (successive additions of 100 µM of anions to 5 µM solution in water (Figure 6b)) is “exclusively decreases when sulfate anions are added”. In series [4] (sulfate anions 100 µM, fluorophore 10 µM, water), the fluorescence quenching is listed as -2 fold.

Usually pKa stands for the negative logarithm of the acid dissociation constant. Low values mean a stronger acid or weaker base, high ones a weaker acid or stronger base.
